Molecules are shown by their SMILES.

In general, IC50 refers to the concentration that gives 50% inhibition.

The target of this experiment is T1, human adenosine A2b receptor (Homo sapiens, UniProt P29275).
T1 construct: expressed in transfected cells; host or cells: CHO-K1 (Chinese Hamster Ovary) with CRE-luciferase reporter
T1 sequence (P29275 1-332): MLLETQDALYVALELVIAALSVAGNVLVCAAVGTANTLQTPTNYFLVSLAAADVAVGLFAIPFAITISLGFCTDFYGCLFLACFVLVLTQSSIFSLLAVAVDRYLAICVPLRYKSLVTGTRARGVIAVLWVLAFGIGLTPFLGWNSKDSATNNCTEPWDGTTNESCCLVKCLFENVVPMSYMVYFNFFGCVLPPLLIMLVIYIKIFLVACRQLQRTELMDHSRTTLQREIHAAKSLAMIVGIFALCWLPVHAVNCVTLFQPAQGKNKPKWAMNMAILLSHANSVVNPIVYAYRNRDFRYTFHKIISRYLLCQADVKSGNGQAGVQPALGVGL
The experiment can be described thus: Cellular reporter gene (CRE-luciferase) A2b receptor antagonist assay in recombinant CHO-K1 cells stimulated with NECA. It is filed as cell-based. Conditions: recombinant CHO-K1 cell line, co-incubation with EC50 concentration of NECA, 3 hours, in some cases means, rounded to two significant digits. Summed up:
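CHO-K1 cells expressing human A2b receptor with a CRE-driven firefly luciferase reporter, co-incubated with test compound and NECA at its same-day EC50 concentration. Luminescence read 3 hours after NECA addition.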
For orientation: A reporter such as luciferase makes a cellular process visible.

With `CCCn1c(=O)c2c(C)c(C(=O)N3CCC(C)(O)CC3)sc2n(CCOC(F)(F)F)c1=O` [Example 79, 6-[(4-Hydroxy-4-methylpiperidin-1-yl)carbonyl]-5-methyl-3-propyl-1-[2-(trifluoromethoxy)ethyl]thieno[2,3-d]pyrimidine-2,4(1H,3H)-dione], the IC50 was determined as 8 nM.

Take `CCCn1c(=O)c2c(C)c(C(=O)N3CCC(O)(CO)CC3)sc2n(CCOC(F)(F)F)c1=O` [Example 80, 6-{[4-Hydroxy-4-(hydroxymethyl)piperidin-1-yl]carbonyl}-5-methyl-3-propyl-1-[2-(trifluoromethoxy)ethyl]thieno[2,3-d]pyrimidine-2,4(1H,3H)-dione]: the IC50 was 27 nM.

Consider `CCn1c(=O)c2c(C(F)(F)F)c(C(=O)N3CCC(C)(O)CC3)sc2n(CCC(F)(F)F)c1=O` [Example 82, 3-Ethyl-6-[(4-hydroxy-4-methylpiperidin-1-yl)carbonyl]-5-(trifluoromethyl)-1-(3,3,3-trifluoropropyl)thieno[2,3-d]pyrimidine-2,4(1H,3H)-dione], for which the half-maximal inhibitory concentration (IC50) was 23 nM.

For `CCn1c(=O)c2c(C(F)(F)F)c(C(=O)N3CCC(O)(CO)CC3)sc2n(CCC(F)(F)F)c1=O` [Example 83, 3-Ethyl-6-{[4-hydroxy-4-(hydroxymethyl)piperidin-1-yl]carbonyl}-5-(trifluoromethyl)-1-(3,3,3-trifluoropropyl)thieno[2,3-d]pyrimidine-2,4(1H,3H)-dione], the concentration for half-maximal inhibition (IC50) was 56 nM. The value for `O=C(c1sc2c(c1C(F)F)c(=O)n(CCc1ccccc1)c(=O)n2CCC(F)(F)F)N1CCC(O)CC1` [Example 84, 5-(Difluoromethyl)-6-[(4-hydroxypiperidin-1-yl)carbonyl]-3-(2-phenylethyl)-1-(3,3,3-trifluoropropyl)thieno[2,3-d]pyrimidine-2,4(1H,3H)-dione] was 19 nM; that for `CC1(O)CCN(C(=O)c2sc3c(c2C(F)F)c(=O)n(CCc2ccccc2)c(=O)n3CCC(F)(F)F)CC1` [Example 85, 5-(Difluoromethyl)-6-[(4-hydroxy-4-methylpiperidin-1-yl)carbonyl]-3-(2-phenylethyl)-1-(3,3,3-trifluoropropyl)thieno[2,3-d]pyrimidine-2,4(1H,3H)-dione] was 9.5 nM; that for `O=C(c1sc2c(c1C(F)F)c(=O)n(CCc1ccccc1)c(=O)n2CCC(F)(F)F)N1CCC(O)(CO)CC1` [Example 86, 5-(Difluoromethyl)-6-{[4-hydroxy-4-(hydroxymethyl)piperidin-1-yl]carbonyl}-3-(2-phenylethyl)-1-(3,3,3-trifluoropropyl)thieno[2,3-d]pyrimidine-2,4(1H,3H)-dione] was 12 nM. In the case of `CCc1c(C(=O)N2CCC(O)CC2)sc2c1c(=O)n(CC)c(=O)n2CCC(F)(F)F` [Example 87, 3,5-Diethyl-6-[(4-hydroxypiperidin-1-yl)carbonyl]-1-(3,3,3-trifluoropropyl)thieno[2,3-d]pyrimidine-2,4(1H,3H)-dione] it was 26 nM; in that of `O=C(c1cc2c(=O)n(CCc3ccccc3)c(=O)n(CCC(F)(F)F)c2s1)N1CCC(O)CC1` [Example 90, 6-[(4-Hydroxypiperidin-1-yl)carbonyl]-3-(2-phenylethyl)-1-(3,3,3-trifluoropropyl)thieno[2,3-d]pyrimidine-2,4(1H,3H)-dione], 440 nM. Regarding `CC1(O)CCN(C(=O)c2cc3c(=O)n(CCc4ccccc4)c(=O)n(CCC(F)(F)F)c3s2)CC1` [Example 91, 6-[(4-Hydroxy-4-methylpiperidin-1-yl)carbonyl]-3-(2-phenylethyl)-1-(3,3,3-trifluoropropyl)thieno[2,3-d]pyrimidine-2,4(1H,3H)-dione], the 50% inhibitory concentration (IC50) is 260 nM.

Regarding `O=C(c1cc2c(=O)n(CCc3ccccc3)c(=O)n(CCC(F)(F)F)c2s1)N1CCC(O)(CO)CC1` [Example 92, 6-{[4-Hydroxy-4-(hydroxymethyl)piperidin-1-yl]carbonyl}-3-(2-phenylethyl)-1-(3,3,3-trifluoropropyl)thieno[2,3-d]pyrimidine-2,4(1H,3H)-dione], the IC50 worked out at 370 nM. In the case of `Cc1c(C(=O)N2CCNC(=O)C2)sc2c1c(=O)n(CC(F)(F)c1ccccc1)c(=O)n2CCC(F)(F)F` [Example 93, 3-(2,2-Difluoro-2-phenylethyl)-5-methyl-6-[(3-oxopiperazin-1-yl)carbonyl]-1-(3,3,3-trifluoropropyl)thieno[2,3-d]pyrimidine-2,4(1H,3H)-dione], the 50% inhibitory concentration (IC50) came out at 36 nM. The value for `COCCn1c(=O)n(CC(F)(F)c2ccccc2)c(=O)c2c(C)c(C(=O)N3CCNC(=O)C3)sc21` [Example 94, 3-(2,2-Difluoro-2-phenylethyl)-1-(2-methoxyethyl)-5-methyl-6-[(3-oxopiperazin-1-yl)carbonyl]thieno[2,3-d]pyrimidine-2,4(1H,3H)-dione] was 490 nM; that for `CCCn1c(=O)c2c(C)c(C(=O)N3CCNC(=O)C3)sc2n(CCC(F)(F)F)c1=O` [Example 95, 5-Methyl-6-[(3-oxopiperazin-1-yl)carbonyl]-3-propyl-1-(3,3,3-trifluoropropyl)thieno [2,3-d]pyrimidine-2,4(1H,3H)-dione] was 140 nM; that for `CCCn1c(=O)c2c(C)c(C(=O)N3CCNC(=O)C3)sc2n(CCOC(F)(F)F)c1=O` [Example 96, 5-Methyl-6-[(3-oxopiperazin-1-yl)carbonyl]-3-propyl-1-[2-(trifluoromethoxy)ethyl]thieno[2,3-d]pyrimidine-2,4(1H,3H)-dione] was 65 nM. For the compound `O=C1CN(C(=O)c2sc3c(c2C(F)F)c(=O)n(CCc2ccccc2)c(=O)n3CCC(F)(F)F)CCN1` [Example 97, 5-(Difluoromethyl)-6-[(3-oxopiperazin-1-yl)carbonyl]-3-(2-phenylethyl)-1-(3,3,3-trifluoropropyl)thieno[2,3-d]pyrimidine-2,4(1H,3H)-dione], the half-inhibitory concentration (IC50) was found to be 7 nM.

On to `CCc1c(C(=O)N2CCNC(=O)C2)sc2c1c(=O)n(CC)c(=O)n2CCC(F)(F)F` [Example 98, 3,5-Diethyl-6-[(3-oxopiperazin-1-yl)carbonyl]-1-(3,3,3-trifluoropropyl)thieno[2,3-d]pyrimidine-2,4(1H,3H)-dione], for which the IC50 was found to be 100 nM.

With `Cc1c(C(=O)N2CCC(O)CC2)sc2c1c(=O)n(CCc1ccccc1)c(=O)n2CCOC(F)(F)F` [Example 99, 6-[(4-Hydroxypiperidin-1-yl)carbonyl]-5-methyl-3-(2-phenylethyl)-1-[2-(trifluoromethoxy)ethyl]thieno[2,3-d]pyrimidine-2,4(1H,3H)-dione], the IC50 was determined as 10 nM. In the case of `Cc1c(C(=O)N2CCC(O)CC2)sc2c1c(=O)n(CCC=C(F)F)c(=O)n2CCC(F)(F)F` [Example 106, 3-(4,4-Difluorobut-3-en-1-yl)-6-[(4-hydroxypiperidin-1-yl)carbonyl]-5-methyl-1-(3,3,3-trifluoropropyl)thieno [2,3-d]pyrimidine-2,4(1H,3H)-dione] it was 19 nM; in that of `Cc1c(C(=O)N2CCC(C)(O)CC2)sc2c1c(=O)n(CCc1ccccc1)c(=O)n2CCOC(F)(F)F` [Example 109, 6-[(4-Hydroxy-4-methylpiperidin-1-yl)carbonyl]-5-methyl-3-(2-phenylethyl)-1-[2-(trifluoromethoxy)ethyl]thieno[2,3-d]pyrimidine-2,4(1H,3H)-dione], 3.9 nM.
